Paper PMC9696085, “Fully Symmetric Cyclodextrin Polycarboxylates: How to Determine Reliable Protonation Constants from NMR Titration Data” (International Journal of Molecular Sciences, 2022)
Where “and” joins values, the source holds several entries; their conditions need not be identical. Identical values can stand only once. Like-named read-outs stand apart in the source and are kept apart here. Blank lines part the entries; values can stand above or below the compound they belong to.

Key:
[1] = 1H NMR-pH titration, protonation constants; assay type: physicochemical; conditions: for pε12 = averaged interactivity parameter pε¯: site-binding model with a single interactivity parameter; for log kA (carboxylate core microconstant): site-binding model with a single interactivity parameter pε12 (pε¯); for log k: site-binding model without any pair-interactivity parameters (unsatisfactory fit)
Protocol: The pH meter readings were recorded using a Metrohm pH meter, equipped with a Metrohm 6.0234.110 combined glass electrode. A four-point calibration using pH 2.00, pH 4.00, pH 7.00 and pH 11.00 standard buffer solutions were performed directly before pH adjustments. The pH measurements were performed in 25 mL vessels with proper stirring before transferring 600 μL sample solutions into the NMR tubes. Solutions were prepared in the pH range of 1.50–8.70 with 0.30 increments using 0.9 M, 0.5 M and 0.1 M sodium hydroxide and hydrochloric acid solutions in H2O:D2O = 9:1.
For structural characterizations of CD derivatives in D2O, a 600 MHz Varian DDR NMR spectrometer equipped with a 5 mm inverse-detection gradient probe or a 400 MHz Varian Mercury Plus spectrometer equipped with a 5mm Varian 400 Automation Triple Resonance Broadband Pulsed Field Gradient probe was used. For NMR-pH titrations, the same instruments were used. The pH-dependent series of ^1H NMR spectra were recorded in a solvent mixture of H2O:D2O = 9:1 by volume, where the constant ionic strength and the buffer capacity were adjusted using 0.05 M sodium chloride and 0.05 M acetic acid-d4. An appropriate amount of CD was weighed to obtain a 1 mM solution and finally one drop of methanol was added as a chemical shift reference (3.310 ppm). The water resonance was diminished by the dpfgse pulse sequence or presaturation. All the spectra were processed using the MestReNova v9.0.1-13254 (Mestralab Research, S.L., Santiago de Compostela, Spain) software.
The standard macroscopic evaluation of NMR-pH titration curves (Equation (3) in Section 2.2) was performed with the following software tools: Microcal Origin Pro 8 (OriginLab Corp., Northampton, MA, USA), HypNMR2018 [38], OPIUM [39] and home-written R scripts (R version 4.1.2, The R Foundation, Vienna, Austria) using the nls module. The equidistant macroscopic (Equation (8)) and Q-fitting (Equations (4) and (11)) models were fitted both by Origin and our R-scripts to verify their equivalent performance regarding statistical description of the parameter estimates. The microscopic cluster expansion model in Section 2.5 requires summation of >100 variables which is unfeasible in the form of an explicit model function required by commercial data-fitting software like Origin. The enumeration of microspecies was therefore accomplished in a custom-written R script. To assess the robustness of our data-fitting model as well as the error propagation of the optimized log k and pε parameters to the derived log K macroconstants, Monte Carlo simulations on >1000 replicates were performed in R.

[2] = cited from earlier work
[3] = parameters: method as in PMID 18613172; conditions: literature, cited from earlier work
[4] = parameters: method as in doi:10.1021/jp0340820; conditions: cited from earlier work
[5] = ED macro, Eq. (7) evaluation, calculated (*)
[6] = Macroscopic, Eq. (2) evaluation
[7] = Macroscopic, Eq. (2) evaluation, calculated (*)
[8] = Microscopic, Eq. (3) evaluation, calculated (*)
[9] = Literature, ref Hawkins, Perrin, Inorg. Chem. 2 (1963) 843
[10] = ED macro or Q-fitting evaluation, ? = physically unrealistic, SD in parentheses
[11] = ED macro or Q-fitting evaluation, H2O:D2O = 9:1, 0.05 M NaCl, SD in parentheses
[12] = converted from optimized microscopic basicity parameters (site-binding model)
[13] = from ED macro or Q-fitting macroconstants by Eq. 18
[14] = from ED macro or Q-fitting macroconstants by Eq. 18, ? = physically unrealistic
[15] = site-binding (SB) microscopic evaluation
[16] = site-binding (SB) microscopic evaluation, converted from log kA and pε, errors by Monte Carlo

Compound: O=C(O)CCSSCCC(=O)O [DTDPA, 3,3′-dithiodipropionic acid, reference compound]
- log K1 ([1]; ED macro, Eq. (7) evaluation): 4.631 (0.005)
- log K2 ([1]; ED macro, Eq. (7) evaluation): 3.883 (0.005)
- log kA [1, 5]: 4.330 (0.005)
- pεAB [1, 5]: 0.15 (0.01)
- log K1 [1, 6]: 4.62 (0.06)
- log K2 [1, 6]: 3.87 (0.07)
- log kA [1, 7]: 4.32 (0.06)
- pεAB [1, 7]: 0.15 (0.01)
- log K1 [1, 8]: 4.630 (0.005)
- log K2 [1, 8]: 3.88 (0.01)
- log K1 [2, 9]: 4.47
- log K2 [2, 9]: 3.88
- log kA [2, 9]: 4.16
- pεAB [2, 9]: -0.01
- pε ([2]; earlier literature, almost independent carboxylate protonations): ≈ 0
- log kA ([2]; literature value): 4.16

Compound: O=C(O)CCSC[C@H]1O[C@@H]2O[C@H]3[C@H](O)[C@@H](O)[C@@H](O[C@H]4[C@H](O)[C@@H](O)[C@@H](O[C@H]5[C@H](O)[C@@H](O)[C@@H](O[C@H]6[C@H](O)[C@@H](O)[C@@H](O[C@H]7[C@H](O)[C@@H](O)[C@@H](O[C@H]8[C@H](O)[C@@H](O)[C@@H](O[C@H]9[C@H](O)[C@@H](O)[C@@H](O[C@H]1[C@H](O)[C@H]2O)O[C@@H]9CSCCC(=O)O)O[C@@H]8CSCCC(=O)O)O[C@@H]7CSCCC(=O)O)O[C@@H]6CSCCC(=O)O)O[C@@H]5CSCCC(=O)O)O[C@@H]4CSCCC(=O)O)O[C@@H]3CSCCC(=O)O [Suγ-CD, sugammadex, reference compound]
- log K4 [1, 10]: 5.28 (0.22)
- log K5 [1, 10]: 5.14 (0.22)
- log K6 [1, 10]: 4.59 (0.17)
- log K1 [1, 11]: 6.68 (0.08)
- log K2 [1, 11]: 6.17 (0.12)
- log K3 [1, 11]: 5.88 (0.16)
- log K8 ([1]; ED macro or Q-fitting evaluation, SD in parentheses): 3.78 (0.07)
- macroscopic pKa, 1st of the set [1, 12]: 3.83
- macroscopic pKa, 2nd of the set [1, 12]: 4.28
- macroscopic pKa, 3rd of the set [1, 12]: 4.65
- macroscopic pKa, 4th of the set [1, 12]: 5.03
- macroscopic pKa, 5th of the set [1, 12]: 5.43
- macroscopic pKa, 6th of the set [1, 12]: 5.81
- macroscopic pKa, 7th of the set [1, 12]: 6.18
- macroscopic pKa, 8th of the set [1, 12]: 6.64
- log k¯1 (averaged microconstant) [1, 13]: 5.77 (0.08)
- log k¯2 (averaged microconstant) [1, 13]: 5.63 (0.12)
- log k¯3 (averaged microconstant) [1, 13]: 5.58 (0.16)
- log k¯8 (averaged microconstant) [1, 13]: 4.69 (0.07)
- log k¯4 (averaged microconstant) [1, 14]: 5.18 (0.22)
- log k¯5 (averaged microconstant) [1, 14]: 5.24 (0.22)
- log k¯6 (averaged microconstant) [1, 14]: 4.89 (0.17)
- log k¯1 (averaged microconstant) [1, 15]: 5.73 (0.02)
- log k¯2 (averaged microconstant) [1, 15]: 5.64 (0.02)
- log k¯3 (averaged microconstant) [1, 15]: 5.51 (0.02)
- log k¯4 (averaged microconstant) [1, 15]: 5.33 (0.01)
- log k¯5 (averaged microconstant) [1, 15]: 5.13 (0.01)
- log k¯6 (averaged microconstant) [1, 15]: 4.95 (0.02)
- log k¯7 (averaged microconstant) [1, 15]: 4.82 (0.02)
- log k¯8 (averaged microconstant) [1, 15]: 4.73 (0.02)
- log K1 [1, 16]: 6.64 (0.02)
- log K2 [1, 16]: 6.18 (0.02)
- log K3 [1, 16]: 5.81 (0.02)
- log K4 [1, 16]: 5.43 (0.01)
- log K5 [1, 16]: 5.03 (0.01)
- log K6 [1, 16]: 4.65 (0.02)
- log K7 [1, 16]: 4.28 (0.02)
- log K8 [1, 16]: 3.83 (0.02)
- pε12 = averaged interactivity parameter pε¯ [1]: 0.503
- log kA (carboxylate core microconstant) [1]: 5.735 and 5.73
- log k [1]: 5.22

Compound: oxidized glutathione
- pε (carboxylate interactions) [4]: ≈ 0.1

More lines, main results first:

- log K5 [1, 10]: 4.54 (0.06)
- log K7 [1, 10]: 3.69 (0.03)
- log K1 [1, 11]: 6.60 (0.03)
- log K2 [1, 11]: 6.18 (0.04)
- log K3 [1, 11]: 5.27 (0.08)
- macroscopic pKa, 1st of the set [1, 12]: 3.82
- macroscopic pKa, 2nd of the set [1, 12]: 4.31
- macroscopic pKa, 3rd of the set [1, 12]: 4.73
- macroscopic pKa, 4th of the set [1, 12]: 5.18
- macroscopic pKa, 5th of the set [1, 12]: 5.64
- macroscopic pKa, 6th of the set [1, 12]: 6.06
- macroscopic pKa, 7th of the set [1, 12]: 6.54
- log k¯1 (averaged microconstant) [1, 13]: 5.75 (0.03)
- log k¯2 (averaged microconstant) [1, 13]: 5.71 (0.04)
- log k¯3 (averaged microconstant) [1, 13]: 5.04 (0.08)
- log k¯5 (averaged microconstant) [1, 14]: 4.76 (0.06)
- log k¯7 (averaged microconstant) [1, 14]: 4.53 (0.03)
- log k¯1 (averaged microconstant) [1, 15]: 5.70 (0.02)
- log k¯2 (averaged microconstant) [1, 15]: 5.58 (0.02)
- log k¯3 (averaged microconstant) [1, 15]: 5.42 (0.02)
- log k¯4 (averaged microconstant) [1, 15]: 5.18 (0.01)
- log k¯5 (averaged microconstant) [1, 15]: 4.95 (0.02)
- log k¯6 (averaged microconstant) [1, 15]: 4.78 (0.02)
- log k¯7 (averaged microconstant) [1, 15]: 4.67 (0.02)
- log K1 [1, 16]: 6.54 (0.02)
- log K2 [1, 16]: 6.06 (0.02)
- log K3 [1, 16]: 5.64 (0.02)
- log K4 [1, 16]: 5.18 (0.01)
- log K5 [1, 16]: 4.73 (0.02)
- log K6 [1, 16]: 4.31 (0.02)
- log K7 [1, 16]: 3.82 (0.02)
- pε12 = averaged interactivity parameter pε¯ [1]: 0.5144
- log kA (carboxylate core microconstant) [1]: 5.697 and 5.70
- log k [1]: 5.17
Compound: O=C(O)CCSC[C@H]1O[C@@H]2O[C@H]3[C@H](O)[C@@H](O)[C@@H](O[C@H]4[C@H](O)[C@@H](O)[C@@H](O[C@H]5[C@H](O)[C@@H](O)[C@@H](O[C@H]6[C@H](O)[C@@H](O)[C@@H](O[C@H]7[C@H](O)[C@@H](O)[C@@H](O[C@H]8[C@H](O)[C@@H](O)[C@@H](O[C@H]1[C@H](O)[C@H]2O)O[C@@H]8CSCCC(=O)O)O[C@@H]7CSCCC(=O)O)O[C@@H]6CSCCC(=O)O)O[C@@H]5CSCCC(=O)O)O[C@@H]4CSCCC(=O)O)O[C@@H]3CSCCC(=O)O [Suβ-CD, subetadex]
- log K1 ([3]; potentiometric): 6.49 (1)
- log K2 ([3]; potentiometric): 5.69 (1)
- log K3 ([3]; potentiometric): 5.25 (1)
- log K4 ([3]; potentiometric): 4.75 (1)
- log K5 ([3]; potentiometric): 4.31 (1)
- log K6 ([3]; potentiometric): 3.78 (1)
- log K7 ([3]; potentiometric): <3
- log kA [3]: 5.64

- log K ([1]; standard macroscopic evaluation, Equation (3), n = 1): 4.35 (0.01)
Compound: O=C(O)CCSC[C@H]1O[C@@H]2O[C@H]3[C@H](O)[C@@H](O)[C@@H](O[C@H]4[C@H](O)[C@@H](O)[C@@H](O[C@H]5[C@H](O)[C@@H](O)[C@@H](O[C@H]6[C@H](O)[C@@H](O)[C@@H](O[C@H]7[C@H](O)[C@@H](O)[C@@H](O[C@H]8[C@H](O)[C@@H](O)[C@@H](O[C@H]9[C@H](O)[C@@H](O)[C@@H](O[C@H]1[C@H](O)[C@H]2O)O[C@@H]9CO)O[C@@H]8CO)O[C@@H]7CO)O[C@@H]6CO)O[C@@H]5CO)O[C@@H]4CO)O[C@@H]3CO [mono-Suγ-CD, mono-sugammadex]
